Calls of active or inactive are those of the source. The calls are words filed in the database; no cut-off is given here.
What was measured:
[1] = molecular target: Glucagon-like peptide 1 receptor (Homo sapiens, UniProt P43220); assay: Agonist activity at human GLP1 receptor expressed in HEK293 cells assessed as induction of cAMP levels after 20 mins by time-resolved fluorescence analysis; type: functional, cell-based
[2] = test system: Mus musculus; assay: Antidiabetic activity in STZ-induced diabetic Kunming mouse assessed as hypoglycemic time duration for glycemia under 8.35 mmol/L at 25 nmol/kg, ip pretreated with STZ for 5 consecutive days and measured up to 48 hrs; type: functional
[3] = test system: Rattus norvegicus; assay: Antidiabetic activity in Sprague-Dawley rat assessed as increase in insulin level at 25 nmol/kg, ip pretreated for 30 mins followed by glucose challenge and measured after 15 to 60 mins by ELISA method; type: functional
[4] = test system: Rattus norvegicus; assay: Antidiabetic activity in Sprague-Dawley rat assessed as decrease in glucose level at 25 nmol/kg, ip pretreated for 30 mins followed by glucose challenge and measured up to 180 mins by OGTT relative to control; type: functional, organism-based

Glucagon-like peptide 1 receptor, sequence (P43220 whole entry): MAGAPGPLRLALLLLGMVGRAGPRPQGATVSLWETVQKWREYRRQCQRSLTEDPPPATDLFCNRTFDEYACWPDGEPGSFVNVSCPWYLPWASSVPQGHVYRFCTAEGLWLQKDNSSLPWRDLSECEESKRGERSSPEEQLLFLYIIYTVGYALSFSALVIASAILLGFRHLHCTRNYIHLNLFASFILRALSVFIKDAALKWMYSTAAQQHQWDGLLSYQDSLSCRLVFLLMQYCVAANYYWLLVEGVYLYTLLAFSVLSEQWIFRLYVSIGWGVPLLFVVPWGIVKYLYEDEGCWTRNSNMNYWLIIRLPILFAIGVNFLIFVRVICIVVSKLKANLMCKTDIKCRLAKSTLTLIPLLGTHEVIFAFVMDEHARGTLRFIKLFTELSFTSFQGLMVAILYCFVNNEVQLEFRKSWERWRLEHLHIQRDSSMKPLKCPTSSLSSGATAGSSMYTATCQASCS

| EC50 [1] | Compound | Time [2] | Activity [3] | Activity [4] |
| --- | --- | --- | --- | --- |
| 0.0202 nM | CC[C@H](C)[C@H](NC(=O)[C@H](Cc1ccc(O)cc1)NC(=O)[C@H](CC(C)C)NC(=O)[C@H](CCCNC(=N)N)NC(=O)[C@@H](NC(=O)[C@H](C)NC(=O)[C@H](CCC(=O)O)NC(=O)[C@H](CCC(=O)O)NC(=O)[C@H](CCC(=O)O)NC(=O)[C@H](CCSC)NC(=O)[C@H](CCC(N)=O)NC(=O)[C@H](CCCCN)NC(=O)[C@H](CO)NC(=O)[C@H](CC(C)C)NC(=O)[C@H](CC(=O)O)NC(=O)[C@H](CO)NC(=O)[C@@H](NC(=O)[C@H](Cc1ccccc1)NC(=O)[C@@H](NC(=O)CNC(=O)[C@H](CCC(=O)O)NC(=O)CNC(=O)[C@@H](N)Cc1cnc[nH]1)[C@@H](C)O)[C@@H](C)O)C(C)C)C(=O)N[C@@H](CCC(N)=O)C(=O)N[C@@H](Cc1c[nH]c2ccccc12)C(=O)N[C@@H](CC(C)C)C(=O)N[C@@H](CCCCN)C(=O)N[C@@H](CCC(=O)O)C(=O)NCC(=O)NCC(=O)N1CCC[C@H]1C(=O)N[C@@H](CO)C(=O)N[C@@H](CO)C(=O)NCC(=O)N[C@@H](CCCNC(=N)N)C(=O)N1CCC[C@H]1C(=O)N1CCC[C@H]1C(=O)N1CCC[C@H]1C(=O)N[C@@H](CO)C(=O)N[C@@H](CSC1CC(=O)N(CCCCCCCCCCCC(=O)N[C@@H](CCC(=O)O)C(=O)O)C1=O)C(N)=O (stereo not given in full) | – | – | – |
| 0.0182 nM | CC[C@H](C)[C@H](NC(=O)[C@H](Cc1ccc(O)cc1)NC(=O)[C@H](CC(C)C)NC(=O)[C@H](CCCNC(=N)N)NC(=O)[C@@H](NC(=O)[C@H](C)NC(=O)[C@H](CCC(=O)O)NC(=O)[C@H](CCC(=O)O)NC(=O)[C@H](CCC(=O)O)NC(=O)[C@H](CCSC)NC(=O)[C@H](CCC(N)=O)NC(=O)[C@H](CSC1CC(=O)N(CCCCCCCCCCCC(=O)N[C@@H](CCC(=O)O)C(=O)O)C1=O)NC(=O)[C@H](CO)NC(=O)[C@H](CC(C)C)NC(=O)[C@H](CC(=O)O)NC(=O)[C@H](CO)NC(=O)[C@@H](NC(=O)[C@H](Cc1ccccc1)NC(=O)[C@@H](NC(=O)CNC(=O)[C@H](CCC(=O)O)NC(=O)CNC(=O)[C@@H](N)Cc1cnc[nH]1)[C@@H](C)O)[C@@H](C)O)C(C)C)C(=O)N[C@@H](CCC(N)=O)C(=O)N[C@@H](Cc1c[nH]c2ccccc12)C(=O)N[C@@H](CC(C)C)C(=O)N[C@@H](CCCCN)C(=O)N[C@@H](CCC(=O)O)C(=O)NCC(=O)NCC(=O)N1CCC[C@H]1C(=O)N[C@@H](CO)C(=O)N[C@@H](CO)C(=O)NCC(=O)N[C@@H](CCCNC(=N)N)C(=O)N1CCC[C@H]1C(=O)N1CCC[C@H]1C(=O)N1CCC[C@H]1C(=O)N[C@@H](CO)C(N)=O (stereo not given in full) | – | – | – |
| – | CCCCCCCCCCCCCCCC(=O)N[C@@H](CCC(=O)NCCCC[C@H](NC(=O)[C@H](C)NC(=O)[C@H](C)NC(=O)[C@H](CCC(N)=O)NC(=O)CNC(=O)[C@H](CCC(=O)O)NC(=O)[C@H](CC(C)C)NC(=O)[C@H](Cc1ccc(O)cc1)NC(=O)[C@H](CO)NC(=O)[C@H](CO)NC(=O)[C@@H](NC(=O)[C@H](CC(=O)O)NC(=O)[C@H](CO)NC(=O)[C@@H](NC(=O)[C@H](Cc1ccccc1)NC(=O)[C@@H](NC(=O)CNC(=O)[C@H](CCC(=O)O)NC(=O)[C@H](C)NC(=O)[C@@H](N)Cc1cnc[nH]1)[C@@H](C)O)[C@@H](C)O)C(C)C)C(=O)N[C@@H](CCC(=O)O)C(=O)N[C@@H](Cc1ccccc1)C(=O)N[C@H](C(=O)N[C@@H](C)C(=O)N[C@@H](Cc1c[nH]c2ccccc12)C(=O)N[C@@H](CC(C)C)C(=O)N[C@H](C(=O)N[C@@H](CCCNC(=N)N)C(=O)NCC(=O)N[C@@H](CCCNC(=N)N)C(=O)NCC(=O)O)C(C)C)[C@@H](C)CC)C(=O)O [LIRAGLUTIDE] | 13.1 h | 411 pmol/L | Active |
